“And” between values parts separate entries of the source, which are not always exact repeats. Identical values can stand only once. Toxic doses and inconclusive results are not listed.
Test system: CD2F1 mice, L1210 leukemia ip, survival T/C
Assay: NCI In Vivo Anticancer Drug Screen. Data for tumor model L1210 Leukemia (intraperitoneal) in CD2F1 (CDF1) mice
Conditions: higher = longer survival
Outline: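 Mice carrying a transplanted tumor received test compound or vehicle alone. The value is the measurement in the treated group divided by that in the vehicle-treated control group.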

[1] = endpoint: mean survival time, dose: 100.0 mg/kg/injection, schedule: Q01DX001 (ip), vehicle: saline
[2] = endpoint: mean survival time, dose: 200.0 mg/kg/injection, schedule: Q01DX001 (ip), vehicle: saline
[3] = endpoint: mean survival time, dose: 400.0 mg/kg/injection, schedule: Q01DX001 (ip), vehicle: saline
[4] = endpoint: mean survival time, dose: 100.0 mg/kg/injection, schedule: Q04DX003 (ip), vehicle: saline with Tween-80
[5] = endpoint: mean survival time, dose: 200.0 mg/kg/injection, schedule: Q04DX003 (ip), vehicle: saline with Tween-80
[6] = endpoint: mean survival time, dose: 400.0 mg/kg/injection, schedule: Q04DX003 (ip), vehicle: saline with Tween-80
[7] = endpoint: mean survival time, dose: 50.0 mg/kg/injection, schedule: Q01DX009 (ip), vehicle: saline
[8] = endpoint: mean survival time, dose: 100.0 mg/kg/injection, schedule: Q01DX009 (ip), vehicle: saline
[9] = endpoint: mean survival time, dose: 100.0 mg/kg/injection, schedule: Q01DX001 (ip), vehicle: saline with Tween-80
[10] = endpoint: mean survival time, dose: 200.0 mg/kg/injection, schedule: Q01DX001 (ip), vehicle: saline with Tween-80
[11] = endpoint: mean survival time, dose: 25.0 mg/kg/injection, schedule: Q01DX009 (ip), vehicle: saline with Tween-80
[12] = endpoint: mean survival time, dose: 25.0 mg/kg/injection, schedule: Q04DX003 (ip), vehicle: saline with Tween-80
[13] = endpoint: mean survival time, dose: 50.0 mg/kg/injection, schedule: Q01DX009 (ip), vehicle: saline with Tween-80
[14] = endpoint: mean survival time, dose: 50.0 mg/kg/injection, schedule: Q04DX003 (ip), vehicle: saline with Tween-80
[15] = endpoint: mean survival time, dose: 100.0 mg/kg/injection, schedule: Q01DX009 (ip), vehicle: saline with Tween-80
[16] = endpoint: mean survival time, dose: 400.0 mg/kg/injection, schedule: Q01DX001 (ip), vehicle: saline with Tween-80
[17] = endpoint: mean survival time, dose: 75.0 mg/kg/injection, schedule: Q04DX003 (ip), vehicle: saline
[18] = endpoint: mean survival time, dose: 150.0 mg/kg/injection, schedule: Q04DX003 (ip), vehicle: saline
[19] = endpoint: mean survival time, dose: 300.0 mg/kg/injection, schedule: Q04DX003 (ip), vehicle: saline
[20] = endpoint: mean survival time, dose: 100.0 mg/kg/injection, schedule: Q04DX002 (ip), vehicle: saline with Tween-80

## O=S1(=O)CS(=O)(=O)OCCO1
endpoint: median survival time, dose: 6.25 mg/kg/injection, schedule: Q01DX009 (oral), vehicle: Klucel (hydroxypropylcellulose) (HPC)
  T/C: 112 % of control
endpoint: median survival time, dose: 12.5 mg/kg/injection, schedule: Q01DX001 (oral), vehicle: Klucel (hydroxypropylcellulose) (HPC)
  T/C: 101 % of control
endpoint: median survival time, dose: 22.0 mg/kg/injection, schedule: Q06HX002 (oral), vehicle: Klucel (hydroxypropylcellulose) (HPC)
  T/C: 113 % of control
endpoint: median survival time, dose: 25.0 mg/kg/injection, schedule: Q01DX001 (oral), vehicle: Klucel (hydroxypropylcellulose) (HPC)
  T/C: 112 % of control
endpoint: median survival time, dose: 25.0 mg/kg/injection, schedule: Q01DX009 (oral), vehicle: Klucel (hydroxypropylcellulose) (HPC)
  T/C: 213 % of control
endpoint: median survival time, dose: 33.0 mg/kg/injection, schedule: Q01DX001 (oral), vehicle: Klucel (hydroxypropylcellulose) (HPC)
  T/C: 117 % of control
endpoint: median survival time, dose: 33.0 mg/kg/injection, schedule: Q01DX005 (oral), vehicle: Klucel (hydroxypropylcellulose) (HPC)
  T/C: 103 % of control
endpoint: median survival time, dose: 33.0 mg/kg/injection, schedule: Q06HX002 (oral), vehicle: Klucel (hydroxypropylcellulose) (HPC)
  T/C: 117 % of control
endpoint: median survival time, dose: 49.5 mg/kg/injection, schedule: Q01DX001 (oral), vehicle: Klucel (hydroxypropylcellulose) (HPC)
  T/C: 123 % of control
endpoint: median survival time, dose: 50.0 mg/kg/injection, schedule: Q01DX001 (oral), vehicle: Klucel (hydroxypropylcellulose) (HPC)
  T/C: 119 % of control
endpoint: median survival time, dose: 50.0 mg/kg/injection, schedule: Q01DX009 (oral), vehicle: Klucel (hydroxypropylcellulose) (HPC)
  T/C: 178 % of control and 337 % of control
endpoint: median survival time, dose: 74.2 mg/kg/injection, schedule: Q01DX005 (oral), vehicle: Klucel (hydroxypropylcellulose) (HPC)
  T/C: 185 % of control
endpoint: median survival time, dose: 100.0 mg/kg/injection, schedule: Q01DX001 (oral), vehicle: Klucel (hydroxypropylcellulose) (HPC)
  T/C: 124 % of control
endpoint: median survival time, dose: 100.0 mg/kg/injection, schedule: Q01DX009 (oral), vehicle: Klucel (hydroxypropylcellulose) (HPC)
  T/C: 238 % of control
endpoint: median survival time, dose: 111.2 mg/kg/injection, schedule: Q01DX005 (oral), vehicle: Klucel (hydroxypropylcellulose) (HPC)
  T/C: 212 % of control
endpoint: median survival time, dose: 112.5 mg/kg/injection, schedule: Q01DX001 (oral), vehicle: Klucel (hydroxypropylcellulose) (HPC)
  T/C: 235 % of control
endpoint: median survival time, dose: 166.8 mg/kg/injection, schedule: Q01DX001 (oral), vehicle: Klucel (hydroxypropylcellulose) (HPC)
  T/C: 160 % of control
endpoint: median survival time, dose: 166.8 mg/kg/injection, schedule: Q01DX005 (oral), vehicle: Klucel (hydroxypropylcellulose) (HPC)
  T/C: 272 % of control
endpoint: median survival time, dose: 200.0 mg/kg/injection, schedule: Q01DX001 (oral), vehicle: Klucel (hydroxypropylcellulose) (HPC)
  T/C: 178 % of control
endpoint: median survival time, dose: 250.0 mg/kg/injection, schedule: Q01DX001 (oral), vehicle: Klucel (hydroxypropylcellulose) (HPC)
  T/C: 225 % of control

## CC(=O)OCCC/C(=C/c1c[nH]c2ccccc12)[N+](=O)[O-]
[1]
  T/C: 97 % of control
[2]
  T/C: 102 % of control
[3]
  T/C: 109 % of control

## O=[N+]([O-])c1cccc(N=C(Nc2cccc([N+](=O)[O-])c2)c2ccccc2)c1
[4]
  T/C: 113 % of control
[5]
  T/C: 107 % of control
[6]
  T/C: 103 % of control

## C=C(C)C1CCC2=CCCC(C)C2(C)C1 (configuration not stated)
[7]
  T/C: 98 % of control
[8]
  T/C: 104 % of control
endpoint: mean survival time, dose: 200.0 mg/kg/injection, schedule: Q01DX009 (ip), vehicle: saline
  T/C: 90 % of control

## C/C=C1/C[C@@H](C)[C@@](C)(O)C(=O)OCC2=CC[N+]3([O-])CC[C@@H](OC1=O)[C@@H]23 (some centres not stated)
[9]
  T/C: 103 % of control
[10]
  T/C: 97 % of control

## N#CCc1ccc(Cl)c(Cl)c1
[11]
  T/C: 102 % of control
[12]
  T/C: 111 % of control
[13]
  T/C: 100 % of control
[14]
  T/C: 94 % of control
[4]
  T/C: 102 % of control

## CCN(CC)CCN1CC2C3C=CC(C3)C2C1 (configuration not stated)
[11]
  T/C: 97 % of control
[13]
  T/C: 100 % of control
[15]
  T/C: 102 % of control and 104 % of control

## COC(=O)C(Br)c1ccccc1 (configuration not stated)
[9]
  T/C: 108 % of control
[10]
  T/C: 91 % of control
[16]
  T/C: 97 % of control

## CCOP(=O)(OCC)C1=C(SCC)C(F)(F)C(F)(F)C1(F)F
endpoint: mean survival time, dose: 75.0 mg/kg/injection, schedule: Q01DX001 (ip), vehicle: other
  T/C: 104 % of control

## COS(=O)(=O)CC(O)(c1ccccc1)c1ccccc1
endpoint: mean survival time, dose: 75.0 mg/kg/injection, schedule: Q01DX009 (ip), vehicle: saline
  T/C: 102 % of control
[17]
  T/C: 97 % of control
endpoint: mean survival time, dose: 150.0 mg/kg/injection, schedule: Q01DX009 (ip), vehicle: saline
  T/C: 100 % of control
[18]
  T/C: 95 % of control
endpoint: mean survival time, dose: 300.0 mg/kg/injection, schedule: Q01DX009 (ip), vehicle: saline
  T/C: 100 % of control
[19]
  T/C: 95 % of control

## COC(=O)c1cccc(COc2ccc([N+](=O)[O-])cc2Cl)c1
[15]
  T/C: 98 % of control
[4]
  T/C: 101 % of control
endpoint: mean survival time, dose: 200.0 mg/kg/injection, schedule: Q01DX009 (ip), vehicle: saline with Tween-80
  T/C: 96 % of control
[5]
  T/C: 100 % of control
endpoint: mean survival time, dose: 400.0 mg/kg/injection, schedule: Q01DX009 (ip), vehicle: saline with Tween-80
  T/C: 95 % of control
[6]
  T/C: 100 % of control

## CC1CCC2[S][Sn]3([NH]C2C1)[NH]C1CC(C)CCC1[S]3 (configuration not stated)
[20]
  T/C: 106 % of control
endpoint: mean survival time, dose: 200.0 mg/kg/injection, schedule: Q04DX002 (ip), vehicle: saline with Tween-80
  T/C: 111 % of control

## CNC(=O)CCl
endpoint: mean survival time, dose: 25.0 mg/kg/injection, schedule: Q01DX009 (ip), vehicle: saline
  T/C: 103 % of control
[7]
  T/C: 105 % of control
[8]
  T/C: 104 % of control

## O=CC12C=CC(CC1)C1C(=O)OC(=O)C12 (configuration not stated)
[9]
  T/C: 104 % of control
[10]
  T/C: 103 % of control
[16]
  T/C: 101 % of control

## CCCCCCCCCCCCSC1=CC(=O)C(OC)=C(OC)C1=O
endpoint: mean survival time, dose: 0.78 mg/kg/injection, schedule: Q01DX009 (ip), vehicle: other
  T/C: 95 % of control
endpoint: mean survival time, dose: 1.56 mg/kg/injection, schedule: Q01DX009 (ip), vehicle: other
  T/C: 95 % of control
endpoint: mean survival time, dose: 3.13 mg/kg/injection, schedule: Q01DX009 (ip), vehicle: other
  T/C: 97 % of control
endpoint: mean survival time, dose: 6.25 mg/kg/injection, schedule: Q01DX009 (ip), vehicle: other
  T/C: 97 % of control
endpoint: mean survival time, dose: 12.5 mg/kg/injection, schedule: Q01DX009 (ip), vehicle: other
  T/C: 95 % of control
endpoint: mean survival time, dose: 25.0 mg/kg/injection, schedule: Q01DX009 (ip), vehicle: other
  T/C: 94 % of control

## O=C(O)Cc1c(Cl)n(-c2ccccc2)c2ccccc12
[12]
  T/C: 96 % of control
[14]
  T/C: 102 % of control
[4]
  T/C: 104 % of control

## [Cl][Pt][Cl].c1ccc([PH+](CC[PH+](c2ccccc2)c2ccccc2)c2ccccc2)cc1
endpoint: mean survival time, dose: 37.5 mg/kg/injection, schedule: Q04DX003 (ip), vehicle: saline
  T/C: 98 % of control
[17]
  T/C: 93 % of control
[18]
  T/C: 96 % of control
[19]
  T/C: 95 % of control

## CCOC(=O)c1cc(-c2ccccc2)nc2c(Cl)cc(Cl)cc12
[1]
  T/C: 94 % of control
[2]
  T/C: 90 % of control
[3]
  T/C: 96 % of control

## O=C1NC(=S)S/C1=C\c1ccc(Cl)c(Cl)c1
[4]
  T/C: 106 % of control
[5]
  T/C: 94 % of control
[6]
  T/C: 97 % of control

## [Cl][Mn][Cl]
endpoint: median survival time, dose: 8.0 mg/kg/injection, schedule: Q01DX009 (ip), vehicle: saline
  T/C: 92 % of control
endpoint: median survival time, dose: 16.0 mg/kg/injection, schedule: Q01DX009 (ip), vehicle: saline
  T/C: 97 % of control
endpoint: median survival time, dose: 32.0 mg/kg/injection, schedule: Q01DX009 (ip), vehicle: saline
  T/C: 103 % of control
endpoint: median survival time, dose: 64.0 mg/kg/injection, schedule: Q01DX009 (ip), vehicle: saline
  T/C: 110 % of control

## O=C1OC(c2ccc([N+](=O)[O-])cc2)=N/C1=C\c1ccc2c(c1)OCO2
endpoint: mean survival time, dose: 25.0 mg/kg/injection, schedule: Q04DX002 (ip), vehicle: saline with Tween-80
  T/C: 95 % of control
endpoint: mean survival time, dose: 50.0 mg/kg/injection, schedule: Q04DX002 (ip), vehicle: saline with Tween-80
  T/C: 98 % of control
[20]
  T/C: 91 % of control

## C=CCS(=O)(=O)Cc1cccc([N+](=O)[O-])c1
endpoint: mean survival time, dose: 100.0 mg/kg/injection, schedule: Q04DX002 (ip), vehicle: Klucel (hydroxypropylcellulose) (HPC)
  T/C: 103 % of control
endpoint: mean survival time, dose: 200.0 mg/kg/injection, schedule: Q04DX002 (ip), vehicle: Klucel (hydroxypropylcellulose) (HPC)
  T/C: 94 % of control
endpoint: mean survival time, dose: 400.0 mg/kg/injection, schedule: Q04DX002 (ip), vehicle: Klucel (hydroxypropylcellulose) (HPC)
  T/C: 90 % of control

Source: PubChem BioAssay AID256 (DTP/NCI, 2004)
